Measurements published in US20240116985A1, “STAPLED PEPTIDES AND METHODS THEREOF” (priority 2020, published 2024).
pIC50: −log10 of the molar value. In brackets after ≈: the same amount, converted by molar mass. Read-outs that look alike come from different tables or passages of the source.

How the values were obtained:
[1] = molecular target: T1, beta-catenin/TCF4 engagement (Homo sapiens, UniProt P35222); assay: Nano-BRET target engagement assay (B-cat-Halo & TCF4-Luc in HEK293 cells); format: cell-based; details: absolute IC50; read-out: NanoBRET Abs IC50
T1 construct: expressed in transfected cells; host or cells: HEK293
T1 sequence (P35222 1-781): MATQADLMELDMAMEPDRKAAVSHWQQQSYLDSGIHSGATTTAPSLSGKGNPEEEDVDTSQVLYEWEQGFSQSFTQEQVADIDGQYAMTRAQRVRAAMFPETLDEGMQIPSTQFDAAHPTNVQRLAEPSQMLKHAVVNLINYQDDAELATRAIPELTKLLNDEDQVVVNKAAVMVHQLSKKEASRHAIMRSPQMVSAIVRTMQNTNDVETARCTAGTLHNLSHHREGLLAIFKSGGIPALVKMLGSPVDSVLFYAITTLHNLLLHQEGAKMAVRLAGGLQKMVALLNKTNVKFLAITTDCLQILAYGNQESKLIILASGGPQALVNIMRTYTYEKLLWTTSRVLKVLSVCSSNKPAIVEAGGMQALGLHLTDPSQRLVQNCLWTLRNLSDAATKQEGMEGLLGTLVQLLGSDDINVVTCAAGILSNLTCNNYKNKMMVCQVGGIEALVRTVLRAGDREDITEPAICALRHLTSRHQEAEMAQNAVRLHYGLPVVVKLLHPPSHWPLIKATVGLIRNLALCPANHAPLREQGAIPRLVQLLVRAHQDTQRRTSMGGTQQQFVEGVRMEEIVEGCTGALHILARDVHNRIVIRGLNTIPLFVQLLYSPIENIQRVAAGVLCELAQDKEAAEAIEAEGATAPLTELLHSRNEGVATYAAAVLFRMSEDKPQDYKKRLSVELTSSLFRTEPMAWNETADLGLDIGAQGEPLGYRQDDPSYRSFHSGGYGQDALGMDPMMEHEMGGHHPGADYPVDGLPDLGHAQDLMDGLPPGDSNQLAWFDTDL

CHI Log D procedure = format: physicochemical; details: pH 7.4, CHI Log D
Solubility in PBS = format: physicochemical
In short: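 HPLC quantitation of peptide remaining in the PBS supernatant after ultracentrifugation, referenced to a 50 μM solution in DMSO.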

[2] = test system: TCF/LEF luciferase Reporter in DLD1 cells; assay: TCF reporter assay (DLD1 TCF/LEF luciferase reporter, Bright-Glo); format: cell-based
In short: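 DLD1 cells stably carrying a TCF/LEF luciferase reporter were plated at 5000 cells/well in RPMI + 4% FBS and treated overnight with a 1:2 compound dilution series. Bright-Glo luminescence read on day 3; viability by CellTiter-Glo. Absolute IC50 determined.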

[3] = molecular target: T2, full-length beta-Catenin (Uniprot ID P35222) (Homo sapiens, UniProt P35222); assay: Fluorescence polarization IC50 (beta-catenin / 5FAM-TCF4 10-53 competition); format: binding; details: read-out: beta-Catenin FP IC50
T2 construct: 10 nM full-length beta-Catenin (Uniprot ID P35222)
T2 sequence (P35222 1-781): T1 sequence (P35222 1-781)

[4] = absolute IC50, read-out: DLD1 reporter assay Abs IC50
[5] = read-out: DLD1 4% Abs IC50, DLD1 4%

| Structure (SMILES) | pIC50 [1] | chromatographic logD (CHI Log D procedure) | Solubility (Solubility in PBS; Solubility (uM)) | pIC50 [2, 4] | pIC50 [3] | pIC50 [2, 5] | Solubility (Solubility in PBS) |
| --- | --- | --- | --- | --- | --- | --- | --- |
| CC(=O)N1CCC[C@]12CC=CCCCC1(CCCC=CCCCOC(=O)N3CC[C@@](C(=O)N[C@@H](Cc4ccccc4Cl)C(=O)N[C@@H](Cc4csc5ccccc45)C(=O)N[C@@H](CCC(N)=O)C(N)=O)(C3)NC(=O)[C@H](CC(N)=O)NC(=O)[C@H](Cc3ccccc3)NC(=O)[C@H](CO)NC(=O)[C@H](C)NC(=O)[C@H](CN(CC(=O)O)CC(F)(F)F)NC(=O)[C@H](CC(=O)O)NC1=O)NC(=O)[C@H](CC(C)(C)C)NC(=O)[C@H](CC(=O)O)NC2=O (stereo partly drawn) [I-1004, Ac-PL3-Asp-Npg-B5-Asp-TfeGA-Ala-Ser-Phe-Asn-PyrS2-2C1F-BztA-Gln-NH2] | 4.97 | 2 | 47 µM (≈ 97.5 µg/mL) | < 4.70 | 8.30 | – | – |
| CC(=O)N1CCC[C@]12CC=CCCCC1(CCCC=CCCCOC(=O)N3CC[C@@](C(=O)N[C@@H](Cc4ccccc4Cl)C(=O)N[C@@H](Cc4csc5ccccc45)C(=O)N[C@@H](CCC(N)=O)C(N)=O)(C3)NC(=O)[C@H](CC(N)=O)NC(=O)[C@H](Cc3ccccc3)NC(=O)[C@H](C)NC(=O)[C@H](CC(C)C)NC(=O)[C@H](CN(CC(=O)O)CC(F)(F)F)NC(=O)[C@H](CC(=O)O)NC1=O)NC(=O)[C@H](CC(C)(C)C)NC(=O)[C@H](CC(=O)O)NC2=O (stereo partly drawn) [I-1007, Ac-PL3-Asp-Npg-B5-Asp-TfeGA-Leu-Ala-Phe-Asn-PyrS2-2C1F-BztA-Gln-NH2] | 4.60 | 2.45 | 18 µM (≈ 37.8 µg/mL) | 5.48 | 8.22 | – | – |
| CC(=O)N1CCC[C@]12CC=CCCCC1(CCCC=CCCCOC(=O)N3CC[C@@](C(=O)N[C@@H](Cc4ccccc4Cl)C(=O)N[C@@H](Cc4csc5ccccc45)C(=O)N[C@@H](CCC(N)=O)C(N)=O)(C3)NC(=O)[C@H](CC(N)=O)NC(=O)[C@H](Cc3ccccc3)NC(=O)[C@H](C)NC(=O)[C@H](Cc3ccccc3)NC(=O)[C@H](CN(CC(=O)O)CC(F)(F)F)NC(=O)[C@H](CC(=O)O)NC1=O)NC(=O)[C@H](CC(C)(C)C)NC(=O)[C@H](CC(=O)O)NC2=O (stereo partly drawn) [I-1008, Ac-PL3-Asp-Npg-B5-Asp-TfeGA-Phe-Ala-Phe-Asn-PyrS2-2C1F-BztA-Gln-NH2] | 4.85 | 2.43 | 34 µM (≈ 72.5 µg/mL) | 4.89 | 8.05 | 5.33 | – |
| CC(=O)N1CCC[C@]12CC=CCCCC1(CCCC=CCCCOC(=O)N3CC[C@@](C(=O)N[C@@H](Cc4ccccc4Cl)C(=O)N[C@@H](Cc4csc5ccccc45)C(=O)N[C@@H](CCC(N)=O)C(N)=O)(C3)NC(=O)[C@H](CC(N)=O)NC(=O)[C@H](Cc3ccccc3)NC(=O)[C@H](C)NC(=O)[C@H](CCCCN)NC(=O)[C@H](CN(CC(=O)O)CC(F)(F)F)NC(=O)[C@H](CC(=O)O)NC1=O)NC(=O)[C@H](CC(C)(C)C)NC(=O)[C@H](CC(=O)O)NC2=O (stereo partly drawn) [I-1011, Ac-PL3-Asp-Npg-B5-Asp-TfeGA-Lys-Ala-Phe-Asn-PyrS2-2C1F-BztA-Gln-NH2] | 4.68 | 2.03 | 23 µM (≈ 48.6 µg/mL) | < 4.70 | 8.30 | – | – |
| CC(=O)N1CCC[C@]12CC=CCCCC1(CCCC=CCCCOC(=O)N3CC[C@@](C(=O)N[C@@H](Cc4ccccc4Cl)C(=O)N[C@@H](Cc4csc5ccccc45)C(=O)N[C@@H](C(N)=O)[C@H](C)O)(C3)NC(=O)[C@H](CC(N)=O)NC(=O)[C@H](Cc3ccccc3)NC(=O)[C@H](C)NC(=O)[C@H](C)NC(=O)[C@H](CC(=O)O)NC(=O)[C@H](CC(=O)O)NC1=O)NC(=O)[C@H](CC(C)(C)C)NC(=O)[C@H](CCC(=O)O)NC2=O (stereo partly drawn) [I-1029, Ac-PL3-Glu-Npg-B5-Asp-Asp-Ala-Ala-Phe-Asn-PyrS2-2C1F-BztA-dThr-NH2] | < 4.70 | 2.36 | 49 µM (≈ 94.7 µg/mL) | < 4.70 | 6.08 | – | – |

Next, values leading:

| pIC50 [1] | chromatographic logD (CHI Log D procedure) | Solubility (Solubility in PBS; Solubility (uM)) | pIC50 [2, 4] | pIC50 [3] | pIC50 [2, 5] | Solubility (Solubility in PBS) | Structure (SMILES) |
| --- | --- | --- | --- | --- | --- | --- | --- |
| 5.05 | 2.27 | 47 µM (≈ 88.9 µg/mL) | 5.05 | 8.30 | 5.24 | – | CC(=O)N1CCC[C@]12CC=CCCCC1(CCCC=CCCCOC(=O)N3CC[C@@](C(=O)N[C@@H](Cc4ccccc4Cl)C(=O)N[C@@H](Cc4csc5ccccc45)C(=O)N[C@@H](CO)C(N)=O)(C3)NC(=O)[C@H]([C@@H](C)O)NC(=O)[C@H](Cc3ccccc3)NC(=O)[C@H](C)NC(=O)[C@H](C)NC(=O)[C@H](CC(=O)O)NC(=O)[C@H](CC(=O)O)NC1=O)NC(=O)[C@H](CC(C)(C)C)NC(=O)[C@H](CC(=O)O)NC2=O (stereo partly drawn) [I-1015, Ac-PL3-Asp-Npg-B5-Asp-Asp-Ala-Ala-Phe-Thr-PyrS2-2C1F-BztA-Ser-NH2] |
| 4.67 | 2.38 | – | 4.67 | 8.10 | – | 10 µM (≈ 18.9 µg/mL) | CC(=O)N1CCC[C@]12CC=CCCCC1(CCCC=CCCCOC(=O)N3CC[C@@](C(=O)N[C@@H](Cc4ccccc4Cl)C(=O)N[C@@H](Cc4csc5ccccc45)C(=O)N[C@@H](CO)C(N)=O)(C3)NC(=O)[C@H]([C@@H](C)O)NC(=O)[C@H](Cc3ccccc3)NC(=O)[C@H](C)NC(=O)[C@H](C)NC(=O)[C@H](CC(N)=O)NC(=O)[C@H](CC(=O)O)NC1=O)NC(=O)[C@H](CC(C)(C)C)NC(=O)[C@H](CC(=O)O)NC2=O (stereo partly drawn) [I-1016, Ac-PL3-Asp-Npg-B5-Asp-Asn-Ala-Ala-Phe-Thr-PyrS2-2ClF-BztA-Ser-NH2] |
| 5.05 | 2.11 | 48 µM (≈ 92.1 µg/mL) | < 4.70 | 8.30 | – | – | CC(=O)N1CCC[C@]12CC=CCCCC1(CCCC=CCCCOC(=O)N3CC[C@@](C(=O)N[C@@H](Cc4ccccc4Cl)C(=O)N[C@@H](Cc4csc5ccccc45)C(=O)N[C@@H](CCC(N)=O)C(N)=O)(C3)NC(=O)[C@H](CO)NC(=O)[C@H](Cc3ccccc3)NC(=O)[C@H](C)NC(=O)[C@H](C)NC(=O)[C@H](CC(=O)O)NC(=O)[C@H](CC(=O)O)NC1=O)NC(=O)[C@H](CC(C)(C)C)NC(=O)[C@H](CC(=O)O)NC2=O (stereo partly drawn) [I-1017, Ac-PL3-Asp-Npg-B5-Asp-Asp-Ala-Ala-Phe-Ser-PyrS2-2C1F-BztA-Gln-NH2] |
| 5.02 | 2.22 | 48 µM (≈ 90.2 µg/mL) | 5.08 | 8.30 | 5.11 | – | CC(=O)N1CCC[C@]12CC=CCCCC1(CCCC=CCCCOC(=O)N3CC[C@@](C(=O)N[C@@H](Cc4ccccc4Cl)C(=O)N[C@@H](Cc4csc5ccccc45)C(=O)N[C@@H](CO)C(N)=O)(C3)NC(=O)[C@H](CO)NC(=O)[C@H](Cc3ccccc3)NC(=O)[C@H](C)NC(=O)[C@H](C)NC(=O)[C@H](CC(=O)O)NC(=O)[C@H](CC(=O)O)NC1=O)NC(=O)[C@H](CC(C)(C)C)NC(=O)[C@H](CC(=O)O)NC2=O (stereo partly drawn) [I-1019, Ac-PL3-Asp-Npg-B5-Asp-Asp-Ala-Ala-Phe-Ser-PyrS2-2C1F-BztA-Ser-NH2] |
| 5.06 | 2.4 | – | 5.19 | 7.89 | 5.44 | 10 µM (≈ 19.2 µg/mL) | CC(=O)N1CCC[C@]12CC=CCCCC1(CCCC=CCCCOC(=O)N3CC[C@@](C(=O)N[C@@H](Cc4ccccc4Cl)C(=O)N[C@@H](Cc4csc5ccccc45)C(=O)N[C@@H](C(N)=O)[C@H](C)O)(C3)NC(=O)[C@H](CC(N)=O)NC(=O)[C@H](Cc3ccccc3)NC(=O)[C@H](C)NC(=O)[C@H](C)NC(=O)[C@H](CC(=O)O)NC(=O)[C@H](CC(=O)O)NC1=O)NC(=O)[C@H](CC(C)(C)C)NC(=O)[C@H](CC(=O)O)NC2=O (stereo partly drawn) [I-1028, Ac-PL3-Asp-Npg-B5-Asp-Asp-Ala-Ala-Phe-Asn-PyrS2-2C1F-BztA-dThr-NH2] |
